In brackets after ≈: the same amount, converted by molar mass. Read-outs that look alike come from different tables or passages of the source.
Columns and labels:
[1] = system: KB cells (human nasopharyngeal cells); assay: In vitro antineoplastic test on KB cells (MTT, 3 days); type: cell-based; details: 72 h, KB cells in vitro, 37° C. for three days, MTT, read-out: IC50
Procedure: In vitro antineoplastic test on KB cells (human nasopharyngeal cells):
1.25×10^3 (0.1 ml) of KB cells suspended in a RPMI 1640 medium (a product of Nissui Seiyaku Co., Ltd.) containing 20% of bovine fetus serum, penicillin (100 units/ml), streptomycin (100 μg/ml), mercaptoethanol (5×10^-5 M) and sodium pyruvate (1 mM) were placed in each hole of a 96-hole flat-bottom microplate and cultured in an incubator containing 5% of carbon dioxide at 37° C. for one day.
This concentration was the maximum one, which was subjected to two-fold serial dilution with 0.1% bovine fetus serum RPMI 1640 culture liquid containing 0.5% of dimethyl sulfoxide. It was added to the KB cells in each hole of the above-described culture plate in an amount of 0.1 ml and cultured in an incubator containing 5% of carbon dioxide at 37° C. for three days.
After the completion of the culture, 0.05 ml of MTT [3-(4,5-dimethylthiazol-2-yl)-2,5-diphenyltetrazolium bromide] solution (3.3 mg/ml) was added to each hole and the culture was conducted for an additional 1 h. The supernatant liquid was removed from each hole by suction and a formazan thus formed was dissolved in 0.1 ml of dimethyl sulfoxide. The absorbance at 540 nm was determined with a microplate reader to use as an index of a viable count. A percentage inhibition was calculated according to the following formula and the concentration of the test compound for 50% inhibition (IC50) was determined.
Percentage inhibition (%)=(C-T)/C×100
T: absorbance of the hole containing the test compound
C: absorbance of the hole containing no test compound

[2] = system: colon 38 (cancer of the colon of mice); type: in vivo, mice (BDF1, female); details: once a day for 8 days, 21 days after transplantation
Procedure: In vivo antineoplastic test on colon 38 (cancer of the colon of mice):
About 75 mg of colon 38 was subcutaneously transplanted in the side of the body of each of 7-week old female BDF1 mice. A compound of the present invention was suspended in 0.5% methylcellulose and oral administration of a predetermined amount of the suspension once a day was started on the next day and continued for 8 days. 0.5% methylcellulose was orally given to a control group. The control group consisted of 10 mice and the group to which the medicine was given consisted of 6 mice.
21 days after the transplantation, the tumors were taken out and weighed. The tumor growth inhibition ratio of the group to which the medicine was given to the control group was determined according to the following formula:
Growth inhibition ratio (%) (C-T)/C×100
T: average weight of tumor in the group to which the test compound was given
C: average weight of tumor in the control group

BDF1 mice = system: BDF1 mice; set-up: species or system female); details: mouse, in vivo, 1651 mg/kg
Procedure: EXPERIMENTAL EXAMPLE 3: Toxicity tests
No mouse died, even with 1651 mg/kg of the compound.

SMILES | IC50 [1] [µg/mL] | Growth inhibition ratio ([2]; 100 mg/kg/day oral) [%] | viability observed for 7 days after the administration (BDF1 mice) | Growth inhibition ratio ([2]; 50 mg/kg/day oral) [%]
Cc1ccc(S(=O)(=O)Nc2cccnc2Nc2ccccc2)cc1 [Example 1, N-(2-Anilino-3-pyridyl)-p-toluenesulfonamide] | 1.5 (≈ 4.42 µM) | 80 | – | –
CCc1ccc(S(=O)(=O)Nc2cccnc2Nc2ccccc2)cc1 [Example 2, N-(2-Anilino-3-pyridyl)-4-ethylbenzenesulfonamide] | 1.7 (≈ 4.81 µM) | 69 | – | –
COc1ccc(S(=O)(=O)Nc2cccnc2Nc2ccccc2)cc1 [Example 3, N-(2-Anilino-3-pyridyl)-4-methoxybenzenesulfonamide] | 0.27 (≈ 0.76 µM) | 98 | No mouse died | –
COc1ccc(Nc2ncccc2NS(=O)(=O)c2ccc(OC)cc2)cc1 [Example 4, 4-Methoxy-N-[2-[(4-methoxyphenyl)amino]-3-pyridyl]benzenesulfonamide] | 1.9 (≈ 4.93 µM) | 99 | No mouse died | –
COc1ccc(S(=O)(=O)Nc2cccnc2Nc2ccc(O)cc2)cc1 [Example 6, N-[2-[(4-Hydroxyphenyl)amino]-3-pyridyl]-4-methoxybenzenesulfonamide] | 0.42 (≈ 1.13 µM) | 98 | No mouse died | –
COc1ccc(S(=O)(=O)Nc2cccnc2Nc2ccncc2)cc1 [Example 7, 4-Methoxy-N-[2-[(4-pyridyl)amino]-3-pyridyl]benzenesulfonamide] | 1 (≈ 2.81 µM) | – | – | 61
COc1ccc(S(=O)(=O)Nc2ccccc2NC(=O)c2cccnc2C)cc1 [Example 70, N-[2-(4-Methoxybenzenesulfonamido)phenyl]-2-methylnicotinamide] | 0.033 (≈ 0.083 µM) | – | – | 63
COc1ccc(S(=O)(=O)Nc2ccccc2NC(=O)c2ccc(F)cc2)cc1 [Example 82, 4-Fluoro-N-[2-(4-methoxybenzenesulfonamido)phenyl]benzamide] | 0.026 (≈ 0.0649 µM) | – | – | –
COc1ccc(S(=O)(=O)Nc2ccccc2NC(=O)c2ccco2)cc1 [Example 85, N-[2-(4-Methoxybenzenesulfonamido)phenyl]-2-furancarboxamide] | 0.01 (≈ 0.0269 µM) | – | – | –
COc1ccc(S(=O)(=O)Nc2ccccc2NC(=O)c2ccncc2)cc1 [Example 88, N-[2-(4-Methoxybenzenesulfonamido)phenyl]isonicotinamide] | 0.01 (≈ 0.0261 µM) | – | – | –
COc1ccc(S(=O)(=O)Nc2cccc(C)c2NC(=O)c2ccncc2)cc1 [Example 91, N-[2-(4-Methoxybenzenesulfonamido)-6-methylphenyl]isonicotinamide] | 0.079 (≈ 0.199 µM) | – | – | –
COc1ccc(S(=O)(=O)Nc2ccccc2NC(=O)c2ccc(F)cc2Cl)cc1 [Example 94, 2-Chloro-4-fluoro-N-[2-(4-methoxybenzenesulfonamido)phenyl]benzamide] | 0.064 (≈ 0.147 µM) | – | – | –
COc1ccc(S(=O)(=O)Nc2ccccc2NC(=O)c2ccccc2C)cc1 [Example 95, N-[2-(4-Methoxybenzenesulfonamido)phenyl]-2-methylbenzamide] | 0.045 (≈ 0.114 µM) | – | – | –
COc1ccc(S(=O)(=O)Nc2ccccc2NC(=S)c2ccc(F)cc2)cc1 [Example 97, 4-Fluoro-N-[2-(4-methoxybenzenesulfonamido)phenyl]benzothioamide] | 0.15 (≈ 0.36 µM) | – | – | –
COc1ccc(S(=O)(=O)Nc2ccc(F)cc2NC(=O)c2ccccc2)cc1 [Example 98, N-[5-fluoro-2-(4-methoxybenzenesulfonamido)phenyl]benzamide] | 0.079 (≈ 0.197 µM) | – | – | –
COc1ccc(S(=O)(=O)Nc2ccccc2NC(C)=O)cc1 [Example 101, N-[2-(4-Methoxybenzenesulfonamido)phenyl]acetamide] | 0.1 (≈ 0.312 µM) | – | – | –
CCNC(=O)Nc1ccccc1NS(=O)(=O)c1ccc(OC)cc1 [Example 104, N-[2-[(Ethylaminocarbonyl)amino]phenyl]-4-methoxybenzenesulfonamide] | 0.099 (≈ 0.283 µM) | – | – | –
Nc1ccc(S(=O)(=O)Nc2ccccc2NC(=O)c2ccc(F)cc2)cc1 [Example 106, N-[2-(4-Aminobenzenesulfonamido)phenyl]-4-fluorobenzamide] | 0.3 (≈ 0.778 µM) | – | – | –
